Columns and labels:
BxPC3-SMAD4+ = test: XTT cell viability assay, BxPC3-SMAD4+; type: cell-based, human; details: BxPC3-SMAD4+ vs BxPC3, XTT, 48 hours; TGFβ1 0.02 ng/ml, NT-S100A8 50 nM
Description: Supplementary file 1478-811X-12-20-S7.tiff: Additional file 7: Figure S6 XTT cell viability assay results. BxPC3 (empty columns) and BxPC3-SMAD4+ (filled columns) were seeded in a 96 well culture plate (2000 cells/well) and cultured for 48 hours, A: in absence (control) or in presence of TGFβ1 (0.02 ng/ml) and NT-S100A8 (50 nM), alone or combined; B: in absence (control) or in presence of TGFβ1 (0.02 ng/ml) and S100A8 (10 nM) and S100A9 (10 nM), alone or combined. In each experimental set, the median value of Abs450nm of untreated cells was calculated and used as reference. All the other values were expressed as percentage to the reference. Columns and bars show mean and standard errors, respectivelty. Student’s t test: * = p<0.05. Click here for file
BxPC3, Capan1, MiaPaCa2, Panc1 and BxPC3-SMAD4+ cells were seeded (2000 cells per well) in 96-well cell culture plates and cultured in complete media for 24 hours. […] Cell growth was assessed after 48 hours using the XTT cell viability test (Roche, Milano, Italy). […] The results were expressed as percentage with respect to the median Abs450nm of control cells run in the same experimental set.

BxPC3 EMT gene mRNA = test: Real time PCR for EMT markers, BxPC3; type: cell-based, human; details: BxPC3, 72 hours
Description: BxPC3 and MiaPaCa2 cells (300 × 10^3) were seeded in six well dishes for 24 hours in their complete media. Cells remained non-stimulated (negative control) or were stimulated with 10 nM S100A8, 10 nM S100A9 and 50 nM NT-S100A8, alone or combined with 0.02 ng/ml TGFβ1, for 72 hours. Following stimulation, the cells were collected with 0.25% trypsin (1 mM EDTA) and centrifuged for 10 min at 4,000 rpm. Total RNA was extracted from cells using the High Pure RNA isolation kit (Roche, Monza, Italy), and reverse transcription was performed using 200 ng of total RNA, M-MLV Transcriptase and 250 μM random primers (Invitrogen S.R.L.). Quantitative Real-Time PCR analysis for CDH1 (E-cadherin), CDH2 (N-cadherin), SNAI1 (Snail), SNAI2 (Slug), TWIST1 (Twist), ZEB1, ZEB2, and B2M (β2-micro-globulin) were performed with the LightCycler 480 Real-Time System (Roche Diagnostics, Mannheim, Germany). The primer sequences (shown in Additional file 10: Table S2) and the respective probes were designed using the Universal ProbeLibrary (Roche) and ProbeFinder software (http://www.roche-applied-science.com/). Experimental procedures followed the standard protocol using the LightCycler 480 Probes Master (Roche). β2-microglobulin (B2M) was included as a housekeeping gene control. […]

## NT-S100A8: 14 N-terminal aminoacid peptide of S100A8, isolated from PDAC tissues (MLTELEKALNSIID; UniProt P05109 1-14, looked up, fragment)
BxPC3-SMAD4+
  cell proliferation response associated with Smad4 expression: positive cell proliferation response

## S100A8: inflammatory calcium binding protein S100A8 (ProSpec-Tany TechnoGene)
BxPC3 EMT gene mRNA; 10 nM, levels comparable with those of TGFβ1, Kruskal-Wallis p = 0.018
  Twist expression: significantly increased

## TGFβ1: transforming growth factor beta 1 (ProSpec-Tany TechnoGene)
BxPC3-SMAD4+
  cell proliferation response associated with Smad4 expression: positive cell proliferation response
BxPC3 EMT gene mRNA; 0.02 ng/ml TGFβ1, RT-PCR, with respect to control cells
  Twist median fold increase: 6.32 fold

Reference: publication PMC4108065, “Inflammation and pancreatic cancer: molecular and functional interactions between S100A8, S100A9, NT-S100A8 and TGFβ1” (Cell Communication and Signaling : CCS, 2014)
